What was measured:
CYP2A6 [1] = biological target: T1, CYP2A6 (Homo sapiens, UniProt P11509); assay: Direct CYP inhibition assay in pooled HLMs, CYP2A6 (coumarin); type: in vitro ADME; settings: pooled HLMs 0.2 mg/mL; substrate coumarin 5 μM; 10 min; 95% CI in parentheses; read-out: IC50 against CYP2A6
T1 sequence (P11509 1-494): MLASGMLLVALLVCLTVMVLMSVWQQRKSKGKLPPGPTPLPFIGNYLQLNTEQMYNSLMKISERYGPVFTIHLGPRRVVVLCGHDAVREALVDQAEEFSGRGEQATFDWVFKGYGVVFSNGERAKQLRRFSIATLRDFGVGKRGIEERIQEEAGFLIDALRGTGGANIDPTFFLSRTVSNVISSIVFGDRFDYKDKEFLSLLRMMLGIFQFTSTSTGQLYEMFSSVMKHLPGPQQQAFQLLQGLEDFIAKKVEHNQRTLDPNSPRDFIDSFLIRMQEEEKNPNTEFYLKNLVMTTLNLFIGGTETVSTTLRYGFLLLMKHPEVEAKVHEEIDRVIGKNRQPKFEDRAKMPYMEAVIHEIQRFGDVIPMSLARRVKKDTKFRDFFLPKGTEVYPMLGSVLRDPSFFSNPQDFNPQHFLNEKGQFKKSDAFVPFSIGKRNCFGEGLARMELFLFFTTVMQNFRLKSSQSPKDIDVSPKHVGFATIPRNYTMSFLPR

CYP2B6 [2] = biological target: T2, CYP2B6 (Homo sapiens, UniProt P20813); assay: Direct CYP inhibition assay in pooled HLMs, CYP2B6 (bupropion); settings: read-out: IC50 against CYP2B6; pooled HLMs 0.2 mg/mL; substrate bupropion 50 μM; 10 min; 95% CI in parentheses
T2 sequence (P20813 1-491): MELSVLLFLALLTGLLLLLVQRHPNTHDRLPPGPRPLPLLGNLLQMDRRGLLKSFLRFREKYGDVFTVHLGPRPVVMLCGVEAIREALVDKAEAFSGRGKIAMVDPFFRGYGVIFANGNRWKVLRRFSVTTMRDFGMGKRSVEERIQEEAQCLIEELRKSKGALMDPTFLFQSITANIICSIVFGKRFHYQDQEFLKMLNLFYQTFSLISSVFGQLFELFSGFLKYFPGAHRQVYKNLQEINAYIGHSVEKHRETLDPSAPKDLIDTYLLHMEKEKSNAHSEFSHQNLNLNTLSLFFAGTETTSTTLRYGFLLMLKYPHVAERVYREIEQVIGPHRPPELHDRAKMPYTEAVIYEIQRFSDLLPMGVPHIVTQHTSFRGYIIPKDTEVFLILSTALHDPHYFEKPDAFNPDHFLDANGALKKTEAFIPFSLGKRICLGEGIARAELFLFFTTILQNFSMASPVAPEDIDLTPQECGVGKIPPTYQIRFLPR

CYP2C19 = CYP2C19 (Homo sapiens, UniProt P33261); assay: Direct CYP inhibition assay in pooled HLMs, CYP2C19 (S-mephenytoin); settings: read-out: IC50 against CYP2C19; pooled HLMs 0.2 mg/mL; substrate (S)-mephenytoin 100 μM; 10 min; 95% CI in parentheses
CYP2A6 [3] = biological target: T1, CYP2A6; assay: Metabolism-dependent inhibition assay (IC50 shift) in pooled HLMs, CYP2A6; settings: substrate coumarin; for IC50: pooled HLMs, 95% CI in parentheses
Protocol: (§1) The experiments for determining metabolism-dependent inhibition were conducted utilizing a non-dilution method. […] The pre-incubation was initiated by the addition of 1 mM NADPH and incubation for 30 min. Subsequently, final incubation was performed with the addition of a substrate (5 μM coumarin or 50 μM bupropion) in the presence of NADPH for 10 min; the total volume of the mixture was 200 μL. […] Mixtures were subjected to centrifugation at 3000× g for 20 min at 4 °C, and the supernatants were analyzed using LC-MS/MS. The experiment was performed using three separate samples.
(§2) The CYP-mediated activities in the presence of test substances were expressed as percentages of the corresponding control values.

CYP2B6 [4] = biological target: T2, CYP2B6; assay: Metabolism-dependent inhibition assay (IC50 shift) in pooled HLMs, CYP2B6; settings: substrate bupropion
Protocol: as §1, §2

CYP2B6 [5] = biological target: T2, CYP2B6; assay: Determination of CYP inhibition mode and Ki in pooled HLMs, CYP2B6-mediated bupropion hydroxylation
Protocol: (§3) A 5 min pre-incubation was performed prior to initiating reactions with the addition of 1 mM NADPH. After incubation at 37 °C for 10 min, 200 μL of ice-cold acetonitrile containing 100 nM carbamazepine as an internal standard was added to terminate the reaction. The samples were agitated and centrifuged at 4 °C for 20 min at 3000× g. The supernatants were transferred to a 96-well plate for LC-MS/MS analysis. The experiment was performed using three separate samples.
(§4) Data acquired from the evaluation of enzyme inhibition using various concentrations of substrates and test compounds were fit to different models (competitive, noncompetitive, uncompetitive, or mixed), and inhibition constant (Ki) and goodness of fit values were obtained using GraphPad Prism. The appropriate type of inhibition was selected based on statistical goodness of fit tests including Akaike’s information criterion (AICc) with correction for small sample size and the standard deviation of the residuals (Sy.x).

CYP2A6 [6] = biological target: T1, CYP2A6; assay: Determination of CYP inhibition mode and Ki in pooled HLMs, CYP2A6-mediated coumarin 7-hydroxylation
Protocol: as §3, §4

[7] = test system: CYP isoforms (CYP1A2, CYP2A6, CYP2B6, CYP2C8, CYP2C9, CYP2C19, CYP2D6, CYP2E1, and CYP3A4); assay: Direct CYP inhibition assay in pooled HLMs, nine CYP isoforms (summary statement); settings: up to 50 μM
[8] = IC50 without NADPH/IC50 with NADPH
[9] = best fit by AICc and Sy.x, Dixon plots

Sequence of CYP2C19 (P33261 whole entry): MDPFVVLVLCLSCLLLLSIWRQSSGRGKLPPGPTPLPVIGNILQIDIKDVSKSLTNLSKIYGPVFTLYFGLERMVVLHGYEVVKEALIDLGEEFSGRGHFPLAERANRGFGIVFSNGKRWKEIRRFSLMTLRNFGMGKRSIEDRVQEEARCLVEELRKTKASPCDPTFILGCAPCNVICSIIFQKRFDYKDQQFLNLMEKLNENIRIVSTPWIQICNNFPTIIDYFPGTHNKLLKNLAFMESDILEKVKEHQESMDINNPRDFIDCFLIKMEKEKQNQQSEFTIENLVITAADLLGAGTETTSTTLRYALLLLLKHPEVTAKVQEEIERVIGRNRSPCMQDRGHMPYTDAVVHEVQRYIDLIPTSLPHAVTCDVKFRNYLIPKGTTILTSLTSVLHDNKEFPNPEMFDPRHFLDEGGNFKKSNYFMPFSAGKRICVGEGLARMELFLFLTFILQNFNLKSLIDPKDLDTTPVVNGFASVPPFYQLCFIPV

With C=C(C)C1CC=C(C=O)CC1 (single isomer, unassigned; (+)) [(+)-PAH, (+)-perillaldehyde] the IC50 (CYP2A6 [1]) was 10.6 µM, the IC50 (CYP2B6 [2]) was 29 µM and the IC50 (CYP2C19) was 50.5 µM.
With C=C(C)C1CC=C(C=O)CC1 (single isomer, unassigned; (-)) [(−)-PAH, (−)-Perillaldehyde] the IC50 (CYP2A6 [1]) was 3.64 µM, the “IC50 fold-shift, CYP2A6” value (CYP2A6 [3]; [8]) was 1.03 and the IC50 (CYP2A6 [3]; read-out: IC50, pre-incubation with NADPH, CYP2A6, 30 min pre-incubation with NADPH) was 7.99 µM. The IC50 (CYP2A6 [3]; read-out: IC50, pre-incubation without NADPH, CYP2A6, 30 min pre-incubation without NADPH) was 8.25 µM, the “IC50 fold-shift, CYP2B6” value (CYP2B6 [4]; [8]) was 0.78 and the IC50 (CYP2B6 [4]; read-out: IC50, pre-incubation without NADPH, CYP2B6, pooled HLMs, 30 min pre-incubation without NADPH, 95% CI in parentheses) was 11.9 µM. The IC50 (CYP2B6 [2]) was 6.15 µM, the IC50 (CYP2C19) was 18 µM and the “Type of inhibition, CYP2B6” value (CYP2B6 [5]; [9]) was “mixed inhibition model”. For the same compound, the “Ki, CYP2B6, uncompetitive model (not selected)” value (CYP2B6 [5]; pooled HLMs, bupropion, 95% CI in parentheses) was 2.77 (2.31–3.28) μM, the Ki (CYP2B6 [5]; read-out: Ki, CYP2B6, mixed inhibition model (selected best fit), pooled HLMs, bupropion 12.5–100 μM, 95% CI in parentheses) was 3.05 µM and the “Type of inhibition, CYP2A6” value (CYP2A6 [6]; [9]) was “mixed inhibition model”. The “Ki, CYP2A6, uncompetitive model (not selected)” value (CYP2A6 [6]; pooled HLMs, coumarin, 95% CI in parentheses) was 2.40 (2.04–2.82) μM and the Ki (CYP2A6 [6]; read-out: Ki, CYP2A6, mixed inhibition model (selected best fit), pooled HLMs, coumarin 1.25–10 μM, 95% CI in parentheses) was 1.72 µM.
N[C@@H]1C[C@H]1c1ccccc1 (racemic) [Tranylcypromine, reference compound] showed an IC50 (CYP2A6 [1]) of 0.5 µM.
COc1ccc2[nH]c([S+]([O-])Cc3ncc(C)c(OC)c3C)nc2c1 (stereo not drawn) [Omeprazole, reference compound] showed an IC50 (CYP2C19) of 5.4 µM.
C=C(C)[C@H]1CC=C(C(=O)O)CC1 [(−)-PA, (−)-perillic acid] was tested, and the “Inhibition of activities of CYP isoforms (words)” value [7] was “did not significantly inhibit” and the “Inhibition of activities of CYP isoforms (words)” value ([7]; listed as PA) was “not significantly inhibited”.

Reference: PMC11676982, “Heterotropic Activation of Cytochrome P450 3A4 by Perillyl Alcohol” (Pharmaceutics, 2024)
